Assay: HCV replicon assay (luciferase) in ET (Huh-lucubineo-ET) cell line
Format: cell-based
Conditions: Hepatitis C virus; tested at 10 μM; inhibition of replication relative to no compound control; ET replicon cells, luciferase 48-72 hours; read-out: % inhition at 10 μM

Question: Which inhibition at 10 µM does the source give for `Fc1cccc(-c2nc3cnn(Cc4cc(-c5ccc(OCC6CCOC6)cc5C(F)(F)F)no4)cc-3n2)c1F` (stereo not drawn) [Compound 329, 2-(2,3-Difluoro-phenyl)-5-{3-[4-(tetrahydro-furan-3-ylmethoxy)-2-trifluoromethyl-phenyl]-isoxazol-5-ylmethyl}-5H-imidazo[4,5-d]pyridazine] here?
Answer: The inhibition at 10 µM was 99.5%.

Question: Which inhibition at 10 µM does the source give for `Fc1cccc(-c2nc3cnn(Cc4cc(-c5ccc(CCCC(F)(F)F)cc5)no4)cc-3n2)c1F` [Compound 330, 2-(2,3-Difluoro-phenyl)-5-{3-[4-(4,4,4-trifluoro-butyl)-phenyl]-isoxazol-5-ylmethyl}-5H-imidazo[4,5-d]pyridazine] here?
Answer: Its inhibition at 10 µM is 99.7%.

Question: With `Fc1cccc(-c2nc3cnn(Cc4cc(-c5ccc(CCC(F)(F)F)cc5)no4)cc-3n2)c1F` [Compound 331, 2-(2,3-Difluoro-phenyl)-5-{3-[4-(3,3,3-trifluoro-propyl)-phenyl]-isoxazol-5-ylmethyl}-5H-imidazo[4,5-d]pyridazine] as the molecule, how does the inhibition at 10 µM read?
Answer: Its inhibition at 10 µM is 99.9%.

Question: With `C[Si](C)(C)C#Cc1ccc(-c2cc(Cn3cc4nc(-c5cccc(F)c5F)nc-4cn3)on2)cc1` [Compound 332, 2-(2,3-Difluoro-phenyl)-5-[3-(4-trimethylsilanylethynyl-phenyl)-isoxazol-5-ylmethyl]-5H-imidazo[4,5-d]pyridazine] as the molecule, how does the inhibition at 10 µM read?
Answer: Its inhibition at 10 µM is 99%.

Question: Which inhibition at 10 µM does the source give for `CC(C)(C)C#Cc1ccc(-c2cc(Cn3cc4nc(-c5cccc(F)c5F)nc-4cn3)on2)cc1` [Compound 333, 2-(2,3-Difluoro-phenyl)-5-{3-[4-(3,3-dimethyl-but-1-ynyl)-phenyl]-isoxazol-5-ylmethyl}-5H-imidazo[4,5-d]pyridazine] here?
Answer: The inhibition at 10 µM was 86.4%.

Question: Which inhibition at 10 µM does the source give for `C#Cc1ccc(-c2cc(Cn3cc4nc(-c5cccc(F)c5F)nc-4cn3)on2)cc1` [Compound 334, 2-(2,3-Difluoro-phenyl)-5-[3-(4-ethynyl-phenyl)-isoxazol-5-ylmethyl]-5H-imidazo[4,5-d]pyridazine] here?
Answer: The inhibition at 10 µM was 99%.

Question: Which inhibition at 10 µM does the source give for `Fc1cccc(-c2nc3cnn(Cc4cc(-c5ccc(C#CC6CCCC6)cc5)no4)cc-3n2)c1F` [Compound 335, 5-[3-(4-Cyclopentylethynyl-phenyl)-isoxazol-5-ylmethyl]-2-(2,3-difluoro-phenyl)-5H-imidazo[4,5-d]pyridazine] here?
Answer: The inhibition at 10 µM was 96.7%.

Question: With `Fc1cccc(-c2nc3cnn(Cc4cc(-c5ccc(C(F)F)cc5)no4)cc-3n2)c1F` [Compound 336, 5-[3-(4-Difluoromethyl-phenyl)-isoxazol-5-ylmethyl]-2-(2,3-difluoro-phenyl)-5H-imidazo[4,5-d]pyridazine] as the molecule, how does the inhibition at 10 µM read?
Answer: The inhibition at 10 µM was 99.7%.

Question: With `Fc1cccc(-c2nc3cnn(Cc4cc(-c5ccccc5)no4)cc-3n2)c1F` [Compound 337, 2-(2,3-Difluoro-phenyl)-5-(3-phenyl-isoxazol-5-ylmethyl)-5H-imidazo[4,5-d]pyridazine] as the molecule, how does the inhibition at 10 µM read?
Answer: Its inhibition at 10 µM is 68.5%.

Question: Which inhibition at 10 µM does the source give for `C=Cc1ccc(-c2cc(Cn3cc4nc(-c5cccc(F)c5F)nc-4cn3)on2)cc1` [Compound 338, 2-(2,3-Difluoro-phenyl)-5-[3-(4-vinyl-phenyl)-isoxazol-5-ylmethyl]-5H-imidazo[4,5-d]pyridazine] here?
Answer: Its inhibition at 10 µM is 99.9%.

Question: For `Fc1cccc(-c2nc3cnn(Cc4cc(-c5ccc(C#CC6CC6)cc5)no4)cc-3n2)c1F` [Compound 339, 5-[3-(4-Cyclopropylethynyl-phenyl)-isoxazol-5-ylmethyl]-2-(2,3-difluoro-phenyl)-5H-imidazo[4,5-d]pyridazine], which inhibition at 10 µM is on record?
Answer: Its inhibition at 10 µM is 99.8%.

Question: Which inhibition at 10 µM does the source give for `Oc1ccc(-c2cc(Cn3cc4nc(-c5cccc(F)c5F)nc-4cn3)on2)c(C(F)(F)F)c1` [Compound 340, 4-{5-[2-(2,3-Difluoro-phenyl)-imidazo[4,5-d]pyridazin-5-ylmethyl]-isoxazol-3-yl}-3-trifluoromethyl-phenol] here?
Answer: Its inhibition at 10 µM is 0.116%.
